Measured values taken from patent US20110190492A1, “DIAGNOSTIC PROBE FOR CONFORMATION DISEASE” (TOHOKU UNIVERSITY, priority 2005, published 2011).
Read-outs that look alike come from different tables or passages of the source.

Legend:
[1] = tested on: histidine-requiring Salmonella typhimurium TA100 and TA98 strains; details: in the presence of S9mix; literature comparison compounds; cited from earlier work
[2] = tested on: histidine-requiring Salmonella typhimurium TA100 and TA98 strains; assay: Mutagenicity test (reverse mutation test); assay type: cell-based; details: for relative activity: irrespective of the absence or presence of S9mix
Protocol: In view of their use, it is desirable that the compounds of the invention have no mutagenicity or have little mutagenicity to a level causing no problem. For investigating the gene mutagenesis of the compounds of the invention, herein carried out was a reverse mutation test with histidine-requiring Salmonella typhimurium TA100 and TA98 strains. Two tests were carried out. One is a test for dose determination test; and the other is for mutagenicity.
The test methods and the mutagenicity of the compounds of the invention are mentioned below. In the dose determination test, six doses of 0.160, 0.800, 4.00, 20.0, 100 and 500 μg/plate (common ratio 5) were tried.
As a result of the dose determination test, when the mutagenicity of the test compound was admitted, then the actual test for mutagenicity was carried out, using the dose capable of giving an accurate dose-reaction curve. When no mutagenicity of the test compound was admitted in the dose determination test and when the growth inhibition of the test cells was admitted therein, then the dose to present the growth inhibition was taken as the maximum dose; and when the growth inhibition was not admitted, then a dose of 5000 μg/plate was taken as the maximum dose. With that, the actual test for mutagenicity was carried out on the level of 6 doses (common ratio 2).
First, a test compound was dissolved or suspended in DMSO, then diluted in order to prepare test compound liquids having a varying concentration.
100 μl of a test compound liquid or a negative control (DMSO) solution was put into a sterilized test tube. Then, for the case in the absence of a metabolic activation system (−S9mix), 500 μl of 0.1 mol/liter sodium-phosphate buffer (pH 7.4) was added to it; and for the case in the presence of a metabolic activation system (+S9mix), 500 μl of S9mix was added to it.
Next, 100 μl of the test strain suspension that had been cultivated with shaking at 37° C. for 8 hours was added to it, and preincubated in a shaking thermostat at 37° C. for 20 minutes. After shaken, 2 ml of top agar was added to it, and the contents were mixed.
Next, the mixture was poured onto a minimal glucose agar plate medium (plate) and spread uniformly thereon, then the top agar was solidified, and the plate was transferred into a thermostat and incubated at 37° C. for 48 hours.
Then, the number of the colonies grown through reverse mutation was counted.
For counting it, […]. After area correction and miss-counting correction, the number of the colonies was computed. When the colony analyzer could not be used owing to the deposition of the test compound or the cell growth inhibition, then the number of the colonies was counted with the naked eye.
In case where the number of the colonies through reverse mutation increased two times or more that of the negative control and where the dose dependency or the reproducibility of the increase was admitted, then the tested sample was decided as positive. When the sample was decided as positive, then the relative activity that indicates the relative comparative value of the intensity of the mutagenicity of the test compound was obtained according to the following formula:
Relative Activity={(number of colonies per plate having the concentration)−(number of colonies per negative control plate)}/the value of concentration (mg/plate).

[3] = target: T1, amyloid β protein (Homo sapiens, UniProt P05067); assay: Staining test on a brain section of an Alzheimer disease patient (amyloid β protein); assay type: binding, human (Alzheimer disease patient); details: 100 μM compound in 50% ethanol, 10 minutes, fluorescence microscopy
T1 construct: from tissue; host or cells: paraffin-embedded human brain sections (temporal lobe, hippocampus) of Alzheimer disease patients
T1 sequence (P05067 672-713 limits assumed): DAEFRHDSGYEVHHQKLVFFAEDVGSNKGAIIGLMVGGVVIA
Text: (1) Brain specimens at the temporal lobe and the hippocampus of patients to which a definitive diagnosis of Alzheimer disease had been given, and those of normal senile persons were used. The specimens were given by our coworker, Fukushimura Hospital, Longevity Medicine Institute, and we were given their consent of use of the specimens for our study purpose by the bereaved of the patients (Fukushimura Hospital Ethical Review Board Approval No. 20).
(2) The paraffin-embedded brain tissue was cut into slices having a thickness of 6 μm or 8 μm, and extended and dried on a slide. The paraffin brain section was processed for paraffin removal in xylene twice for 10 minutes, 100% ethanol twice for 5 minutes, 90% ethanol for 5 minutes and running water for 10 minutes in that order.
(3) For pretreatment prior to the staining treatment with a compound of the invention, the sections were processed for autofluorescence removal with lipofuscin. First, the paraffin-removed sections were dipped in 0.25% KMnO4 solution for 20 minutes. These were washed with PBS, twice for 2 minutes, then dipped in 0.1% K2S2O5/oxalic acid solution for about 5 seconds, and then further washed with PBS, three times for 2 minutes.
(4) About 150 μl of a 100 μM solution of a compound of the invention dissolved in 50% ethanol was dropwise applied to the section and reacted for 10 minutes. After dipped five times in tap water, the section was entrapped with Fluor Save Reagent (Calbiochem), and analyzed through microscopy with a fluorescence microscope (Nikon, Eclipse 80i). The images were taken with a digital camera (Nikon Dxm 1200F or Photometrics' Cool SNAP ES).

[4] = target: T2, Tg mouse intracerebral amyloid plaque (amyloid β protein) (Homo sapiens, UniProt P05067); assay: Tg mice with amyloid β deposition: intravenous administration, ex-vivo fluorescence microscopy of brain sections; assay type: in vivo, Tg mouse (Tg2576 or APPswe2576/Tau JPL3)
T2 construct: a Tg mouse (Tg2576) with amyloid β protein deposition; from tissue
T2 sequence (P05067 672-713 limits assumed): as above

[5] = Acute toxicity test, intravenous administration to mice; assay type: in vivo; details: mice observed for 7 days
Protocol: The compounds of the invention were tested for their acute toxicity through intravenous administration thereof to mice. Four Crj:CD1 male mice formed one test group, and some test groups of those mice were used (the mean body weight of the mice of each group was from 31 to 32 g). A test compound was dissolved in a mixture of 1 N HCl, polyethylene glycol-400 and distilled water, or dissolved in DMSO, and then diluted with distilled water. This was administered to each mouse via its tail vein.

SMILES	relative activity [1]	relative activity [2]	binding to amyloid β protein in the brain section of an Alzheimer disease patient [3]	other results
CC(=C(C#N)C#N)c1ccc2cc(N(C)CCF)ccc2c1 [FDDNP]	extremely high			
CN(C)c1ccc(-c2cn3cc(I)ccc3n2)cc1 [IMPY]	extremely high			
Cc1cc2nc(/C=C/c3ccc(N4CCOCC4)s3)sc2cc1C [THK-097, 5,6-dimethyl-2-[2-(5-morpholin-4-yl-thiophen-2-yl)vinyl]-benzothiazole]		minus	bound to the amyloid β protein	Relative Activity in the absence of S9Mix ([2]; (colonies per plate − colonies per negative control plate)/concentration (mg/plate), in the absence of S9Mix as printed in head): minus; Relative Activity in the presence of S9Mix ([2]; (colonies per plate − colonies per negative control plate)/concentration (mg/plate), in the presence of S9Mix as printed in head): minus^1); passage through the blood-brain barrier and binding to Tg mouse intracerebral amyloid plaque ([4]; intravenous administration via tail vein, brain fixed after 1 hour, fluorescence microscopy (THK-097 0.2 mg/kg; THK-525, THK-727, THK-702 4 mg/kg)): passed through the blood-brain barrier, and bound to the Tg mouse intracerebral amyloid plaque
OCC(CF)Oc1ccc2nc(/C=C/c3cnc(N4CCOCC4)s3)oc2c1 (centres unmarked) [THK-702, (E)-2-[2-(2-morpholinothiazol-5-yl)ethenyl]-6-[(1-fluoromethyl-2-hydroxy)ethoxy]-benzoxazole]		minus	The white space arrow indicates amyloid β protein	correspondence of binding site with anti-Aβ antibody-stained site of the same section ([4]; Tg2576 mouse, 4 mg/kg intravenous, antibody 4G8): completely corresponded to the anti-Aβ antibody-stained site of the same section; Maximum Permissible Dose [5]: ≧10 mg/kg
